Experimental findings from US7312333B2, “Retroviral protease inhibitors” (Pharmacia Corporation, priority 1992, dated 2007) are described below.

In one series the test system is CEM cells. Nature of the series: CEM cell assay: intrinsic toxicity of test compound in uninfected cells (MTT). The class given is cell-based. The procedure:
(§1) The effectiveness of the compounds tested in Part A was also determined in a CEM cell assay. The HIV inhibition assay method of acutely infected cells is an automated tetrazolium based colorimetric assay essentially that reported by Pauwles et al, J. Virol. Methods 20, 309-321 (1988). Assays were performed in 96-well tissue culture plates. CEM cells, a CD4^+ cell line, were grown in RPMI-1640 medium (Gibco) supplemented with a 10% fetal-calf serum and were then treated with polybrene (2 μg/mL). An 80 μL volume of medium containing 1×10^4 cells was dispensed into each well of the tissue culture plate. To each well was added a 100 μL volume of test compound dissolved in tissue culture medium (or medium without test compound as a control) to achieve the desired final concentration and the cells were incubated at 37° C. For 1 hour. A frozen culture of HIV-1 was diluted in culture medium to a concentration of 5×10^4 TCID50 per mL (TCID50=the dose of virus that infects 50% of cells in tissue culture), and a 20 μL volume of the virus sample (containing 1000 TCID50 of virus) was added to wells containing test compound and to wells containing only medium (infected control cells). Several wells received culture medium without virus (uninfected control cells). Likewise, the intrinsic toxicity of the test compound was determined by adding medium without virus to several wells containing test compound. In summary, the tissue culture plates contained the following experiments:
(§2) In experiments 2 and 4, the final concentrations of test compounds were 1, 10, 100 and 500 μg/mL. Either azidothymidine (AZT) or dideoxyinosine (ddI) was included as a positive drug control. […] DMSO was added to all control wells at an appropriate concentration.
(§3) Following the addition of virus, cells were incubated at 37° C. in a humidified, 5% CO2 atmosphere for 7 days. Test compounds could be added on days 0, 2 and 5 if desired. On day 7, post-infection, the cells in each well were resuspended and a 100 μL sample of each cell suspension was removed for assay. A 20 μL volume of a 5 mg/mL solution of 3-(4,5-dimethylthiazol-2-yl)-2,5-diphenyltetrazolium bromide (MTT) was added to each 100 μL cell suspension, and the cells were incubated for 4 hours at […] in a 5% CO2 environment. […] To each sample was added 100 μL of 10% sodium dodecylsulfate in 0.01 N HCl to lyse the cells, and samples were incubated overnight. The absorbance at 590 nm was determined for each sample using a Molecular Devices microplate reader. Absorbance values for each set of wells is compared to assess viral control infection, uninfected control cell response as well as test compound by cytotoxicity and antiviral efficacy.
(§4) The calculated EC^50 (effective concentration 50%, i.e., the concentration at which the inhibitor compound reduces cytopathicity by 50%) and TD^50 (toxic dose 50%, i.e., the concentration at which the inhibitor compound reduces cellular viability by 50%) values for these compounds are also shown in Table 1.

For the next series, the system named is HIV-1. Kind of series: CEM cell assay: HIV inhibition in acutely infected cells (MTT colorimetric). The note with it: HIV-1 infected CEM cells, 7 days, concentration reducing cytopathicity by 50%, read-out: Antiviral Activity in Cell Culture (EC50). The class given is cell-based. The procedure:
as §1, §2, §3, §4
A general note: Protection from cytopathic effect is a common read-out in antiviral testing.

For a further series, the target named is T1, HIV protease (Human immunodeficiency virus type 1 group M subtype B, UniProt P04585).
T1 construct: HIV protease is diluted in the assay buffer to a final enzyme concentration of 12.3 nanomolar, based on a molecular weight of 10,780
Nature of the series: HIV protease enzyme assay (fluorogenic substrate 2-aminobenzoyl-Ile-Nle-Phe(p-NO2)-Gln-ArgNH2). Format: biochemical. The note with it: for inhibition at 10 µM: at a concentration of 10 micromolar. The protocol:
The compounds of the present invention are effective HIV protease inhibitors. […] The calculated IC50 (inhibiting concentration 50%, i.e., the concentration at which the inhibitor compound reduces enzyme activity by 50%) values are shown in Table 1. The enzyme method is described below. The substrate is 2-aminobenzoyl-Ile-Nle-Phe(p-NO2)-Gln-ArgNH2. The positive control is MVT-101 (Miller, M. et al, Science, 246, 1149 (1989)] The assay conditions are as follows:
Assay buffer: 20 mM sodium phosphate, pH 6.4
The above described substrate is dissolved in DMSO, then diluted 10 fold in assay buffer. Final substrate concentration in the assay is 80 μM.
HIV protease is diluted in the assay buffer to a final enzyme concentration of 12.3 nanomolar, based on a molecular weight of 10,780.
The final concentration of DMSO is 14% and the final concentration of glycerol is 18%. The test compound is dissolved in DMSO and diluted in DMSO to 10× the test concentration; 10 μL of the enzyme preparation is added, the materials mixed and then the mixture is incubated at ambient temperature for 15 minutes. The enzyme reaction is initiated by the addition of 40 μL of substrate. The increase in fluorescence is monitored at 4 time points (0, 8, 16 and 24 minutes) at ambient temperature. Each assay is carried out in duplicate wells.

Series [1] in a line: CEM cell assay: intrinsic toxicity of test compound in uninfected cells (MTT). The note with it: human, uninfected CEM cells (CD4+ cell line); CEM cells without virus, 7 days, concentration reducing cellular viability by 50% (TD50). The class given is cell-based. The protocol:
as §1, §2, §3, §4

[2] abbreviates: substrate 80 μM, HIV protease 12.3 nanomolar, pH 6.4, ambient temperature, read-out: Enzyme Inhibition (IC50).
[3] abbreviates: Human immunodeficiency virus 1, CCRF-CEM, 168 h.

Where two headings read alike, the source gives them in different places.

For “3-Isoquinolinecarboxamide, N-(1,1-dimethylethyl)decahydro-2-[2-hydroxy-3-[[2-methyl-3-(methylsulfonyl)-1-oxopropyl]amino]-4-phenylbutyl]-, [3S-[2[2S*,3R*(R*)], 3α,4aβ,8aβ]] [Example 6]”, the IC50 (usually the concentration needed to halve the response being measured) was found to be 2000 nM in the series with CEM cells (CEM cells without virus, 7 days, concentration reducing cellular viability by 50% (TD50), read-out: Cell Toxicity (IC50)) and 2 nM on HIV protease (setting [2]). The EC50 (as a rule, the concentration that produces a half-maximal response) with HIV-1 turned out to be 52 nM.
Take `COc1ccc(COC(=O)NCC(C)C(=O)NC(Cc2ccccc2)C(O)CN2CC3CCCCC3CC2C(=O)NC(C)(C)C)cc1` (stereo not drawn) [Example 4, carbamic acid, [3-[[3-[3-[[(1,1-dimethylethyl)-amino]carbonyl]octahydro-2(1H)-isoquinolinyl]-2-hydroxy-1-(phenyl-methyl)propyl]amino]-2-methyl-3-oxopropyl]-,(4-methoxyphenyl)methylester,[3S-[2[1R*(S*),2S*], 3α,4aβ,8aβ]]]: the IC50 with CEM cells amounted to 58000 nM; at HIV protease (setting [2]), 7 nM. For the same molecule, in the series on HIV-1, the EC50 was 42 nM.
Take `C[C@@H](C(=O)N[C@@H](Cc1ccccc1)[C@H](O)CN1C[C@H]2CCCC[C@H]2C[C@H]1C(=O)NC(C)(C)C)C(C)(C)C(=O)O` [Example 12C, butanoic acid, 4-[[3-[3-[[(1,1-dimethylethyl)amino]carbonyl]octahydro-2(1H)-isoquinolinyl]-2-hydroxy-1-(phenylmethyl)propyl]amino]-2,2,3-trimethyl-4-oxo-, [3S-[2[1R*(S*),2S*], 3α,4aβ, 8aβ]]-]: the inhibition (usually the change of the read-out against control, counted positive when it falls) at 10 µM on HIV protease lay within 3 to 100%.
In the case of `CC(C)(C)NC(=O)[C@@H]1C[C@@H]2CCCC[C@@H]2CN1C[C@@H](O)[C@H](Cc1ccccc1)NC(=O)C[C@H](NC(=O)c1ccc2ccccc2n1)C(N)=O` (relative stereo) [Example 10, butanediamide, N^4-[3-[3-[[(1,1-dimethylethyl)-amino]carbonyl]octahydro-2(1H)-isoquinolinyl]-2-hydroxy-1-(phenyl-methyl)propyl]-2-[(2-quinolinylcarbonyl)amino]-, [3S[2[1R*(R*),2S*], 3α,4aβ,8aβ]]], in series [1], half-maximal inhibition (IC50 at 7 days) required 5000 nM. The EC50 in the series with HIV-1 (setting [3]) came to 37 nM. On HIV protease, half-maximal inhibition (IC50) was put at 9 nM and the inhibition at 10 µM is 3 to 100%.
For the molecule `COc1ccc(COC(=O)NC[C@@H](C)C(=O)N[C@@H](Cc2ccccc2)[C@H](O)CN2C[C@H]3CCCC[C@H]3C[C@H]2C(=O)NC(C)(C)C)cc1` (relative stereo) [Example 4, carbamic acid, [3-[[3-[3-[[(1,1-dimethylethyl)-amino]carbonyl]octahydro-2(1H)-isoquinolinyl]-2-hydroxy-1-(phenyl-methyl)propyl]amino]-2-methyl-3-oxopropyl]-,(4-methoxyphenyl)methylester,[3S-[2[1R*(S*),2S*], 3α,4aβ,8aβ]]], the inhibition at 10 µM at HIV protease lay in the range of 3 to 100%.
Consider `C[C@@H](C(=O)N[C@@H](Cc1ccccc1)[C@H](O)CN1C[C@H]2CCCC[C@H]2C[C@H]1C(=O)NC(C)(C)C)C(C)(C)C(N)=O` [Example 12, Butanamide, 4-[[3-[3-[[(1,1-dimethylethyl)-amino]carbonyl]octahydro-2 (1H)-isoquinolinyl]-2-hydroxy-1-(phenylmethyl)propyl]amino]-2,2,3-trimethyl-4-oxo-, [3S-[2[1R*(S*),2S*], 3α, 4aβ, 8 aβ]]], for which the inhibition at 10 µM at HIV protease lay within 3 to 100%.
For the molecule `C[C@@H](C(=O)N[C@@H](Cc1ccccc1)[C@H](O)CN1C[C@H]2CCCC[C@H]2C[C@H]1C(=O)NC(C)(C)C)C(C)(C)C(=O)O` (relative stereo) [Example 12C, butanoic acid, 4-[[3-[3-[[(1,1-dimethylethyl)amino]carbonyl]octahydro-2(1H)-isoquinolinyl]-2-hydroxy-1-(phenylmethyl)propyl]amino]-2,2,3-trimethyl-4-oxo-, [3S-[2[1R*(S*),2S*], 3α,4aβ, 8aβ]]-], in series [1], the IC50 at 7 days worked out at 50000 nM. Further, the EC50 in the series with HIV-1 (setting [3]) was 184 nM. Besides, the IC50 at HIV protease (setting [2]) was found to be 23 nM.
In the case of `C[C@H](CS(C)(=O)=O)C(=O)N[C@@H](Cc1ccccc1)[C@H](O)CN1C[C@H]2CCCC[C@H]2C[C@H]1C(=O)NC(C)(C)C` (relative stereo) [Example 6, 3-Isoquinolinecarboxamide, N-(1,1-dimethylethyl)decahydro-2-[2-hydroxy-3-[[2-methyl-3-(methylsulfonyl)-1-oxopropyl]amino]-4-phenylbutyl]-, [3S-[2[2S*,3R*(R*)], 3α,4aβ,8aβ]]], the inhibition at 10 µM at HIV protease was in the range of 3 to 100%.
For `C[C@@H](C(=O)N[C@@H](Cc1ccccc1)[C@H](O)CN1C[C@H]2CCCC[C@H]2C[C@H]1C(=O)NC(C)(C)C)C(C)(C)C(N)=O` (relative stereo) [Example 12, Butanamide, 4-[[3-[3-[[(1,1-dimethylethyl)-amino]carbonyl]octahydro-2 (1H)-isoquinolinyl]-2-hydroxy-1-(phenylmethyl)propyl]amino]-2,2,3-trimethyl-4-oxo-, [3S-[2[1R*(S*),2S*], 3α, 4aβ, 8 aβ]]], the IC50 at 7 days in series [1] was 59000 nM. Besides, in the series with HIV-1 (setting [3]), the EC50 is 98 nM. Further, at HIV protease (setting [2]), the IC50 was found to be 9 nM.
